Source: patent publication US9884863B2, “STAT3 inhibitor” (Board of Regents, The University of Texas System, priority 2013, dated 2018)
Where two headings read alike, the source gives them in different places.

Assays:
MCF-7 = experiment: MTS cell proliferation assay, MCF-7; type: cell-based, human
Procedure: Cancer cells (breast cancer cell lines MCF-7, MDA-MB-361, SKBR3 and MDA-MB-231, pancreatic cancer cell lines AsPC-1. […] Proliferation was measured by treating cells with the 3-(4,5-dimethylthiazol-2-yl)-5-(3-carboxymethoxyphenyl)-2-(4-sulfophenyl)-2H-tetrazolium) (MTS) in a CellTiter 96t AQueous Non-Radioactive Cell Proliferation Assay kit from Promega, Madison, Wis., USA). Absorbance of all wells was determined by measuring OD at 550 nm after 1 hr incubation at 37° C. on a 96-well iMark™ Microplate Absorbance Reader (BioRad, Hercules, Calif.). Each individual compound was tested in quadruplicate wells for each concentration, and the results were reported as mean absorption±s.e.
In Vitro Determination of Effects of Synthesized Compounds on Cancer Cell Proliferation. Cancer cells (breast cancer cell lines MCF-7 and MDA-MB-231, pancreatic cancer cell lines AsPC-1 and Panc-1) were […], 0.01, 0.1, 1, 5, 10, […] Proliferation was measured by treating cells with the 3-(4,5-dimethylthiazol-2-yl)-5-(3-carboxymethoxyphenyl)-2-(4-sulfophenyl)-2H-tetrazolium) (MTS) in a CellTiter 96t Aqueous Non-Radioactive Cell Proliferation Assay kit (Promega, Madison, Wis., USA). Absorbance of all wells was determined by measuring OD at 550 nm after 1 h incubation at 37° C. on a 96-well iMark™ Microplate Absorbance Reader (BioRad, Hercules, Calif.). Each individual compound was tested in quadruplicate wells for each concentration.

MDA-MB-231 = experiment: MTS cell proliferation assay, MDA-MB-231; type: cell-based, human; settings: Homo sapiens
Procedure: Cancer cells (breast cancer cell lines MCF-7, MDA-MB-361, SKBR3 and MDA-MB-231, pancreatic cancer cell lines AsPC-1. BxPC3 and Panc-1) were seeded in 96-well plates at a density of 1000-2000 cells/well and treated with DMSO, 0.01, 0.1, 1, 5, 10, and […] of STAT3 individual inhibitors for 72 hrs. Proliferation was measured by treating cells with the 3-(4,5-dimethylthiazol-2-yl)-5-(3-carboxymethoxyphenyl)-2-(4-sulfophenyl)-2H-tetrazolium) (MTS) in a CellTiter 96t AQueous Non-Radioactive Cell Proliferation Assay kit from Promega, Madison, Wis., USA). Absorbance of all wells was determined by measuring OD at 550 nm after 1 hr incubation at 37° C. on a 96-well iMark™ Microplate Absorbance Reader (BioRad, Hercules, Calif.).
In Vitro Determination of Effects of Synthesized Compounds on Cancer Cell Proliferation. Cancer cells (breast cancer cell lines MCF-7 and MDA-MB-231, pancreatic cancer cell lines AsPC-1 and Panc-1) were seeded in 96-well plates at a density of 2×10^3 cells/well and treated with DMSO, 0.01, 0.1, 1, 5, 10, and 100 μM of individual STAT3 inhibitors for 72 h. Proliferation was measured by treating cells with the 3-(4,5-dimethylthiazol-2-yl)-5-(3-carboxymethoxyphenyl)-2-(4-sulfophenyl)-2H-tetrazolium) (MTS) in a CellTiter 96t Aqueous Non-Radioactive Cell Proliferation Assay kit (Promega, Madison, Wis., USA). Absorbance of all wells was determined by measuring OD at 550 nm after 1 h incubation at 37° C. on a 96-well iMark™ Microplate Absorbance Reader (BioRad, Hercules, Calif.). Each individual compound was tested in quadruplicate wells for each concentration. […]

[1] = Homo sapiens, MCF7, 72 h; read-out: IC50 MCF-7 (Table 1)
[2] = MDA-MB-231, ER-negative breast cancer, 72 hrs, >10 = no effect, read-out: IC50 MDA-MB-231 (Table 1)
[3] = Homo sapiens, MCF7, 72 h, read-out: IC50 MCF-7 (Table 1)
[4] = MCF-7, 48 hr, μM concentrations
[5] = MDA-MB-231, 72 h, read-out: IC50 MDA-MB-231 (Table 1)

| SMILES | IC50 (MCF-7; [1]) [µM] | IC50 (MDA-MB-231; [2]) [µM] | IC50 (MCF-7; [3]) [µM] | IC50 (MDA-MB-231; [5]) [µM] | further results |
| --- | --- | --- | --- | --- | --- |
| O=C(Nc1ccc2c(c1)S(=O)(=O)C=C2)c1cc(Cl)ccc1OCCBr [Compound 2] | – | – | – | – | IC50 (MCF-7; Homo sapiens, MCF7, read-out: IC50 MCF-7 (Table 2)): > 10 µM; IC50 (MDA-MB-231; MDA-MB-231, read-out: IC50 MDA-MB-231 (Table 2)): > 10 µM |
| COC1CS(=O)(=O)c2cc(NC(=O)c3cc(-c4ccccc4)nc4ccccc34)ccc21 (centres unmarked) [HJC-1-57, 2-Phenyl-quinoline-4-carboxylic acid (3-methoxy-1,1-dioxo-2,3-dihydro-1H-1λ^6-benzo[b]thiophen-6-yl)amide] | > 10 | 13.8 | – | – | – |
| CC(=O)Nc1ccc2c(c1)S(=O)(=O)C=C2 [HJC-1-62, N-(1,1-Dioxo-1H-1λ^6-benzo[b]thiophen-6-yl)acetamide] | > 10 | > 10 | – | – | – |
| COC1CS(=O)(=O)c2cc(NC(C)=O)ccc21 (centres unmarked) [HJC-1-63, N-(3-Methoxy-1,1-dioxo-2,3-dihydro-1H-1λ^6-benzo[b]thiophen-6-yl)acetamide] | > 10 | > 10 | – | – | – |
| COc1ccc(C(=O)Nc2ccc3c(c2)S(=O)(=O)C=C3)cc1 [HJC-2-15, N-(1,1-Dioxo-1H-1λ^6-benzo[b]thiophen-6-yl)-4-methoxybenzamide] | 5.85 | 4.97 | – | – | – |
| COc1ccc(C(=O)Nc2ccc3c(c2)S(=O)(=O)CC3OC)cc1 (centres unmarked) [HJC-2-20, 4-Methoxy-N-(3-methoxy-1,1-dioxo-2,3-dihydro-1H-1λ^6-benzo[b]thiophen-6-yl)benzamide] | > 10 | > 10 | – | – | – |
| O=C(Nc1ccc([N+](=O)[O-])cc1Cl)c1cc(Cl)ccc1OCCN1CCNCC1 [HJC-2-52, 5-Chloro-N-(2-chloro-4-nitro-phenyl)-2-(2-piperazin-1-yl-ethoxy)benzamide] | 12.4 | 8.66 | – | – | – |
| CS(=O)(=O)N1CCN(CCOc2ccc(Cl)cc2C(=O)Nc2ccc([N+](=O)[O-])cc2Cl)CC1 [HJC-2-55, 5-Chloro-N-(2-chloro-4-nitrophenyl)-2-[2-(4-methanesulfonylpiperazin-1-yl)-ethoxy]benzamide] | > 10 | > 10 | – | – | – |
| NCCOCCOc1ccc(Cl)cc1C(=O)Nc1ccc([N+](=O)[O-])cc1Cl [HJC-2-58, 2-[2-(2-Amino-ethoxy)-ethoxy]-5-chloro-N-(2-chloro-4-nitro-phenyl)benzamide] | 9.37 | 5.3 | – | – | – |
| O=C(Nc1ccc2c(c1)S(=O)(=O)C=C2)c1cc(Cl)ccc1OCCN1CCOCC1 [HJC-3-9, 5-Chloro-N-(1,1-dioxo-1H-1λ^6-benzo[b]thiophen-6-yl)-2-(2-morpholin-4-yl-ethoxy) benzamide] | – | – | 0.49 | 5.43 | inhibition on breast cancer cell proliferation (FIG. 1) (MCF-7; [4]): significant inhibition |
| O=C(Nc1ccc2c(c1)S(=O)(=O)C=C2)c1ccccn1 [HJC-3-20, Pyridine-2-carboxylic acid (1,1-dioxo-1H-1λ^6-benzo[b]thiophen-6-yl)amide] | 6.7 | > 10 | – | – | – |
| CN(C)CCOc1ccc(Cl)cc1C(=O)Nc1ccc([N+](=O)[O-])cc1Cl [HJC-3-57, 5-Chloro-N-(2-chloro-4-nitro-phenyl)-2-(2-dimethylamino-ethoxy)benzamide] | – | – | > 10 | > 10 | – |
| O=C(Nc1ccc([N+](=O)[O-])cc1Cl)c1cc(Cl)ccc1OCC(O)CO (centres unmarked) [HJC-3-60, 5-Chloro-N-(2-chloro-4-nitrophenyl)-2-(2,3-dihydroxypropoxy)benzamide] | > 10 | > 10 | – | – | – |
| N#CCC(=O)Nc1ccc2c(c1)S(=O)(=O)C=C2 [HJC-3-61, 2-Cyano-N-(1,1-dioxo-1H-1λ^6-benzo[b]thiophen-6-yl)acetamide] | – | – | > 10 | > 10 | – |
| O=C(Nc1ccc([N+](=O)[O-])cc1Cl)c1cc(Cl)ccc1OCCBr [HJC-3-64, 2-(2-Bromoethoxy)-5-chloro-N-(2-chloro-4-nitrophenyl)benzamide] | – | – | > 10 | > 10 | – |
| CN1CCN(CCOc2ccc(Cl)cc2C(=O)Nc2ccc([N+](=O)[O-])cc2Cl)CC1 [HJC-3-65, 5-Chloro-N-(2-chloro-4-nitrophenyl)-2-[2-(4-methylpiperazin-1-yl)-ethoxy]benzamide] | > 10 | > 10 | – | – | – |
| COc1ccc(S(=O)(=O)Nc2ccc3c(c2)S(=O)(=O)C=C3)cc1 [HJC-3-68, N-(1,1-Dioxo-1H-1λ^6-benzo[b]thiophen-6-yl)-4-methoxybenzenesulfonamide] | 3.45 | 2.71 | – | – | – |
| CN(C)CCOc1ccc(Cl)cc1C(=O)Nc1ccc2c(c1)S(=O)(=O)C=C2 [HJC-3-69, 5-Chloro-2-(2-dimethylaminoethoxy)-N-(1,1-dioxo-1H-1λ^6-benzo[b]thiophen-6-yl) benzamide] | – | – | 3.5 | 2.69 | inhibition on breast cancer cell proliferation (FIG. 1) (MCF-7; [4]): significant inhibition |
| O=C(Nc1ccc2c(c1)S(=O)(=O)C=C2)c1cccnc1 [HJC-3-76, N-(1,1-Dioxo-1H-1λ^6-benzo[b]thiophen-6-yl)-nicotinamide] | – | – | 15.3 | > 10 | – |
| O=C(Nc1ccc2c(c1)S(=O)(=O)C=C2)c1cc(Cl)ccc1OCCBr [HJC-3-77, 2-(2-Bromo-ethoxy)-5-chloro-N-(1,1-dioxo-1H-1λ^6-benzo[b]thiophen-6-yl)benzamide] | – | – | > 10 | > 10 | – |
| CN1CCN(CCOc2ccc(Cl)cc2C(=O)Nc2ccc3c(c2)S(=O)(=O)C=C3)CC1 [HJC-3-78, 5-Chloro-N-(1,1-dioxo-1H-1λ^6-benzo[b]thiophen-6-yl)-2-[2-(4-methylpiperazin-1-yl)-ethoxy]benzamide] | 4.08 | 2.86 | – | – | – |
| O=C(Nc1ccc2c(c1)S(=O)(=O)C=C2)c1cc(Cl)ccc1OCCN1CCCCC1 [HJC-3-79, 5-Chloro-N-(1,1-dioxo-1H-1λ^6-benzo[b]thiophen-6-yl)-2-(2-piperidin-1-yl-ethoxy)benzamide] | 3.74 | 2.51 | – | – | – |
| O=C(Nc1ccc2c(c1)S(=O)(=O)C=C2)c1ccncc1 [HJC-3-80, N-(1,1-Dioxo-1H-1λ^6-benzo[b]thiophen-6-yl)-isonicotinamide] | > 10 | > 10 | – | – | – |
| CN1CCC(Oc2ccc(Cl)cc2C(=O)Nc2ccc([N+](=O)[O-])cc2Cl)CC1 [HJC-3-81, 5-Chloro-N-(2-chloro-4-nitrophenyl)-2-(1-methylpiperidin-4-yloxy)benzamide] | – | – | 4.11 | 2.69 | inhibition on breast cancer cell proliferation (FIG. 1) (MCF-7; [4]): significant inhibition |
| CN1CCC(Oc2ccc(Cl)cc2C(=O)Nc2ccc3c(c2)S(=O)(=O)C=C3)CC1 [HJC-3-82, 5-Chloro-N-(1,1-dioxo-1H-1λ^6-benzo[b]thiophen-6-yl)-2-(1-methyl-piperidin-4-yloxy) benzamide] | – | – | 3.53 | 2.68 | – |
| O=C(Nc1ccc([N+](=O)[O-])cc1Cl)c1cc(Cl)ccc1OCCN1CCCCC1 [HJC-3-84, 5-Chloro-N-(2-chloro-4-nitrophenyl)-2-(2-piperidin-1-yl-ethoxy)benzamide] | > 10 | > 10 | – | – | – |
| O=C(Nc1ccc2c(c1)S(=O)(=O)C=C2)c1cnc2ccccc2c1 [HJC-3-91, Quinoline-3-carboxylic acid (1,1-dioxo-1H-1λ^6-benzo[b]thiophen-6-yl)amide] | 2.97 | 6.21 | – | – | inhibition on breast cancer cell proliferation (FIG. 1) (MCF-7; [4]): significant inhibition |
| NCCOc1ccc(Cl)cc1C(=O)Nc1ccc2c(c1)S(=O)(=O)C=C2 [HJC-3-93, 2-(2-Amino-ethoxy)-5-chloro-N-(1,1-dioxo-1H-1λ^6-benzo[b]thiophen-6-yl)benzamide] | 3.47 | 3.12 | – | – | – |
| O=C(Nc1ccc2c(c1)S(=O)(=O)C=C2)c1ccnc(Br)c1 [HJC-3-95, 2-Bromo-N-(1,1-dioxo-1H-1λ^6-benzo[b]thiophen-6-yl)-isonicotinamide] | 3.64 | > 10 | – | – | – |
